The source of these data is patent US5260257A, “Thermal transfer sheet” (Dai Nippon Printing Co., Ltd., priority 1991, dated 1993).

The structures appear in SMILES notation.

The nature of the first series: light fastness test (xenon fadeometer, percentage fading). The format is physicochemical. The following applies: Table A2, dyes of Table A1, 50° C., 70 kJ/m^2. How it is done:
The light fastness test was conducted as follows.
Irradiation was conducted by means of a xenon fadeometer Ci35A (manufactured by Atlas) under conditions of a black panel temperature of 50° C. and an integrating irradiation energy of 70 kJ/m^2.
The percentage fading was determined from a density change around an initial density of 1.0 according to the following equation.
Percentage fading=(1-I/I0)×100 (%)
I=optical density after irradiation; and
I0 =optical density before irradiation.
.largecircle.: less than 20% in the percentage fading
X : 20% or more in the percentage fading
As for `CCN(CC)c1ccc(N=C2C=C(NC(=O)C3CC3)C(=O)C(Cl)=C2C)c(C)c1` [compound 1], the Light fastness result is on record as “.largecircle. (less than 20% in the percentage fading)”.

On to `CCN(CCO)c1ccc(N=C2C=C(NC(=O)C3CC3)C(=O)C(Cl)=C2C)c(C)c1` [compound 2], for which the Light fastness entry is reported as “.largecircle. (less than 20% in the percentage fading)”. Still for that read-out and setting: the value for `CCN(CC)c1ccc(N=C2C=C(NC(=O)C3CC3)C(=O)C=C2NC(C)=O)c(C)c1` [compound 3] was “.largecircle. (less than 20% in the percentage fading)”; that for `CCOc1cc(N(CC)CC)ccc1N=C1C=CC(=O)C(NC(=O)C2CC2)=C1` [compound 4] was “.largecircle. (less than 20% in the percentage fading)”. As to `CCOc1cc(N(CC)Cc2ccccc2)ccc1N=C1C=C(NC(=O)C2CC2)C(=O)C=C1NC(C)=O` [compound 5], the Light fastness result is listed as “.largecircle. (less than 20% in the percentage fading)”. `CCN(CCNS(C)(=O)=O)c1ccc(N=C2C=C(NC(=O)C3CC3)C(=O)C=C2NC(C)=O)c(C)c1` [compound 6]: the Light fastness entry was “.largecircle. (less than 20% in the percentage fading)”.

Take `CCN(CCC#N)c1ccc(N=C2C=C(NC(=O)C3CC3)C(=O)C=C2NS(C)(=O)=O)c(NC(C)=O)c1` [compound 7]: the Light fastness entry is reported as “.largecircle. (less than 20% in the percentage fading)”.

`CCN(c1ccccc1)c1ccc(N=C2C=C(NC(=O)C3CC3)C(=O)C(Cl)=C2C)c(Cl)c1` [compound 8]: the Light fastness entry is recorded as “.largecircle. (less than 20% in the percentage fading)”. The same measure, in the same setting: the value for `CCN(CC)c1ccc(N=C2C=CC(=O)C(NC(=O)C3CC3)=C2)c(NC(C)=O)c1` [compound 9] was “.largecircle. (less than 20% in the percentage fading)”; that for `CCN(CCO)c1ccc(N=C2C=C(NC(=O)C3CC3)C(=O)C=C2NC(C)=O)c(NS(C)(=O)=O)c1` [compound 10] was “.largecircle. (less than 20% in the percentage fading)”; that for `CCN(CC)c1ccc(N=C2C=C(NC(=O)C3CC3)C(=O)C(Cl)=C2C)cc1` [compound 11] was “.largecircle. (less than 20% in the percentage fading)”.

As to `CCCCC1CC(C(=O)NC2=CC(=Nc3ccc(N(CC)CC)cc3C)C(C)=C(Cl)C2=O)C1` (centres unmarked) [compound 12], the Light fastness result was “.largecircle. (less than 20% in the percentage fading)”.

The same series, now with this note: Table B2, dyes of Table B1, 50° C., 70 kJ/m^2.
Take `CCN(CC)c1ccc(N=C2C=C(NC(=O)C3=CCC=CC3)C(=O)C=C2NC(C)=O)c(C)c1` [Dye No. 20 in Table B1]: the Light fastness result is “.largecircle. (less than 20% in the percentage fading)”. The same measure, in the same setting: with `CCN(CCO)c1ccc(N=C2C=C(NC(=O)C3=CCC=CC3)C(=O)C(Cl)=C2C)c(C)c1` [Dye No. 21 in Table B1] the entry was “.largecircle. (less than 20% in the percentage fading)”. Same read-out and setting: with `CCOc1cc(N(CC)CC)ccc1N=C1C=C(NC(=O)C2CC=CCC2)C(=O)C(Cl)=C1C` (centres unmarked) [Dye No. 22 in Table B1] the entry was “.largecircle. (less than 20% in the percentage fading)”.

The series is the same for the next values; noted with them: Table C2, dyes of Table C1, 50° C., 70 kJ/m^2.
In the case of `CCN(CC)c1ccc(N=C2C=C(NC(=O)C3CC4C=C(C)C3C4)C(=O)C=C2NC(C)=O)c(C)c1` (centres unmarked) [Dye No. 20 in Table C1], the Light fastness entry is “.largecircle. (less than 20% in the percentage fading)”.

As for `CCN(CC)c1ccc(N=C2C=C(NC(=O)C3CC4C=CC3O4)C(=O)C(Cl)=C2C)c(C)c1` (centres unmarked) [Dye No. 21 in Table C1], the Light fastness result is “.largecircle. (less than 20% in the percentage fading)”. Same read-out and setting: with `CCN(CC)c1ccc(N=C2C=C(NC(=O)C3CC4C=CC3S4)C(=O)C(Cl)=C2C)c(C)c1` (centres unmarked) [Dye No. 22 in Table C1] the entry was “.largecircle. (less than 20% in the percentage fading)”.

In the case of `CCN(CC)c1ccc(N=C2C=C(NC(=O)C3CC4C=CC3S4)C(=O)C=C2NC(C)=O)c(C)c1` (centres unmarked) [Dye No. 23 in Table C1], the Light fastness result is “.largecircle. (less than 20% in the percentage fading)”.

Consider `CCN(CC)c1ccc(N=C2C=C(NC(=O)C3CC4C=CC3N4C)C(=O)C(Cl)=C2C)c(C)c1` (centres unmarked) [Dye No. 24 in Table C1], for which the Light fastness result was “.largecircle. (less than 20% in the percentage fading)”.
